Measurements as given in patent publication US12037354B2, “Cyclic pantetheine derivatives and uses thereof” (VectivBio Comet AG, priority 2018, dated 2024).

Experiments:
Format in all cases: cell-based, human
[1] = test system: Venular Endothelial cells (HUVEC) (3C system); assay: BioMAP 3C system, Example 825
Procedure: The BioMAP platform (BioMAP® Diversity PLUS Panel from Eurofins) is an in vitro phenotypic profiling technology that screened the compounds of the present disclosure (hereafter indicated as test agents) in human primary cell-based systems modelling complex tissue and disease states. The BioMAP assays were performed using the Eurofin's BioMAP Technology Platform as (see references 1 to 13 in the example 824 section) to model different diseases on primary cell-based model systems. These systems consisted of either single primary cell types or co-culture cells. Adherent cell types were cultured or co-cultured in 96 or 384-well plates until confluence followed by the addition of compounds prepared in DMSO at a final concentration of ≤0.1%. […]
Following the general procedure as described in Example 824, Venular Endothelial cells (HUVEC) (3C system) were treated with IL-1β, TNFα, IFNγ for 24 h to model Th1 driven cardiovascular and chronic inflammation diseases in the presence or absence of the compounds. Biomarker read out were; Tissue Factor, ICAM-1, E-selectin, uPAR (CD87), IL-8, […], HLA-DR, proliferation and SRB (Sulfo-rhodamine i.e. staining for protein content).

[2] = test system: Venular Endothelial cells (HUVEC) (4H system); assay: BioMAP 4H system, Example 826
Procedure: (§1) The BioMAP platform (BioMAP® Diversity PLUS Panel from Eurofins) is an in vitro phenotypic profiling technology that screened the compounds of the present disclosure (hereafter indicated as test agents) in human primary cell-based systems modelling complex tissue and disease states. The BioMAP assays were performed using the Eurofin's BioMAP Technology Platform as (see references 1 to 13 in the example 824 section) to model different diseases on primary cell-based model systems. These systems consisted of either single primary cell types or co-culture cells. Adherent cell types were cultured or co-cultured in 96 or 384-well plates until confluence followed by the addition of compounds prepared in DMSO at a final concentration of ≤0.1%. In each cell-based system, primary cells from heathy donors (2-6 donors) were pooled and treated with compounds at 1 and 10 μM dose 1 h prior to stimulation and remain in culture as indicated in
(§2) Example 825, Example 826, Example 827, Example 828, Example 829, Example 830, Example 831, Example 832, Example 833, Example 834, Example 835, Example 836 and Example 837. For on the BioMAP® Diversity PLUS® Panel, please see the following references, which are incorporate herein.
Following the general procedure as described in Example 824, Venular Endothelial cells (HUVEC) (4H system) were treated with IL-4 and histamine for 24 h to model Th2 driven allergy and autoimmunity in the presence or absence of compounds. Biomarkers read out were; MCP-1, Eotaxin-3. VCAM-1, P-selectin, uPAR (CD87), SRB and VEGFRII.

[3] = test system: Peripheral blood mononuclear cells co-cultured with venular endothelial cells (HUVEC) (LPS system); assay: BioMAP LPS system, Example 827
Procedure: as §1, §2
Following the general procedure as described in Example 824, Peripheral blood mononuclear cells co-cultured with venular endothelial cells (HUVEC) (LPS system) were stimulated with LPS for 24 h in the presence or absence of compounds, to model cardiovascular disease and chronic inflammation. Biomarkers read out were; MCP-1, VCAM-1, Thrombomodulin, Tissue Factor, CD40, E-selectin, CD69, IL-8, IL-1α, M-CSF, sPGE2, SRB and TNFα.

[4] = test system: Peripheral blood mononuclear cells co-cultured with venular endothelial cells (Sag system); assay: BioMAP Sag system, Example 828; settings: Sag system, 1 uM
Procedure: as §1, §2
Following the general procedure as described in Example 824, Peripheral blood mononuclear cells were co-cultured with venular endothelial cells and treated with soluble antigen (T-cell ligands) (Sag system) in the presence or absence of compounds to model autoimmune and chronic inflammation. Biomarkers read out were; MCP-1, CD38, CD40, E-selectin, CD69, IL-8, MIG, PBMC cytotoxicity, Proliferation and SRB.

[5] = test system: Peripheral blood mononuclear cells co-cultured with B-cells (BT system); assay: BioMAP BT system, Example 829; settings: BT system; 10 uM
Procedure: as §1, §2
Following the general procedure as described in Example 824, Peripheral blood mononuclear cells were co-cultured with B-cells (BT system) were treated with either α-IgM and TCR ligands for 72 h in the presence or absence of the compounds to model asthma, allergy, oncology and autoimmunity. Biomarkers read out were; B-cell proliferation, PBMC cytotoxicity, secreted IgG, sIL-17A, sIL-17F, sIL-2, sIL-6 and s-TNFα.

[6] = test system: Bronchial epithelial cells co-cultured with dermal fibroblast (BF4T system); assay: BioMAP BF4T system, Example 830; settings: 10 uM
Procedure: as §1, §2
Following the general procedure as described in Example 824, Bronchial epithelial cells were co-cultured with dermal fibroblast (BF4T system) and were treated with TNFα and IL-4 for 24 h in the presence or absence of the compounds to model asthma, allergy, fibrosis, lung inflammation. Biomarkers read out were; MCP-1, Eotaxin-3, VCAM-1, ICAM-1, CD90, IL-8, IL-1α, keratin 8/18, MMP-1, MMP-3, MMP-9, PAI-1, SRB, tPA, uPA.

[7] = test system: Coronary artery smooth muscle cells (CASM3C system); assay: BioMAP CASM3C system, Example 832
Procedure: as §1, §2
Following the general procedure as described in Example 824, Coronary artery smooth muscle cells (CASM3C system) were treated with IL-1β, TNFα and IFNγ for 24 h in the presence or absence of the compounds to model cardiovascular inflammation and restenosis. Biomarker reads out were; MCP-1, VCAM-1, Throbomodulin, Tissue factor, uPAR, IL-8, MIG, HLA-DR, IL-6, LDLR, M-CSF, PAI-1, Proliferation, SAA and SRB

[8] = test system: Dermal fibroblasts (HDF3CGF system); assay: BioMAP HDF3CGF system, Example 833; settings: 1 uM
Procedure: as §1, §2
Following the general procedure as described in Example 824, Dermal fibroblasts (HDF3CGF system) were treated with IL-1β, TNFα and IFNγ, EGF, bFGF and PDGF-BB for 24 h in the presence or absence of the compounds to model fibrosis and chronic inflammation. Biomarkers read out were; MCP-1, VCAM-1, ICAM-1, Collagen-I, Collagen-III, IP-10, I-TAC, IL-8, MIG, EGFR, M-CSF, MMP-1, PAI-1, SRB, TIMP-1, TIMP-2 and proliferation was measured for 72 h.

[9] = test system: Keratinocytes co-cultured with dermal fibroblast (KF3CT system); assay: BioMAP KF3CT system, Example 834
Procedure: as §1, §2
Following the general procedure as described in Example 824, Keratinocytes were co-cultured with dermal fibroblast (KF3CT system) and treated with […], TNFα, IFNγ and TGFβ for 24 h in the presence or absence of the compounds to model psoriasis, dermatitis and skin biology. Biomarkers read out were; MCP-1, ICAM-1, IP-10, IL-8, MIG, IL-1α, MMP-9, PAI-1, SRB, TIMP-2, uPA.

[10] = test system: Venular endothelial cells co-cultured with macrophages (Mphg system); assay: BioMAP Mphg system, Example 836
Procedure: as §1, §2
Following the general procedure as described in Example 824, Venular endothelial cells co-cultured with macrophages (Mphg system) and treated with TLR2 ligand for 24 h in the presence or absence of the compounds to mimic cardiovascular inflammation, restenosis and chronic inflammation. Biomarkers read out were; MCP-1, MIP-1α, VCAM-1, CD40, E-selectin, CD69, IL-8, IL-1α, M-CSF, sIL-10 and SRB.

[11] = test system: Monocytes differentiated to M1 macrophages; assay: M1 differentiation assay (TNFα, IL6, IL10 ELISA, FACS), Example 807
Procedure: Monocytes were isolated by positive isolation with CD14+ microbeads (Miltenyi, 130-050-201). Monocytes were 99% viable and were 96% purity as analyzed by FACS and CD14+(BD, 563561). 100,000 monocytes along with compounds at the dose of 10 and 50 μM were allowed to differentiate to macrophages with 10 ng/ml GMCSF (R&D, 15-GM-050/CF) in RPMI complete media (Invitrogen, 22400089) with 15% FBS (Hyclone SV30087.03) and 1% Penicillin-Streptomycin (Gibco, 15140-122). On day 2 and 4 half the media was refreshed with fresh GM-CSF and compounds at 10 and 50 μM dose. On day 6 the macrophages were matured with GMCSF, IFNγ (R&D 285-IF-100/CF) and LPS (Sigma, L6143) in the presence of 10 μM and 50 μM of compounds. After 24 h, supernatant was collected for the measurement of TNFα (DKW, 1117202) IL6 (DKW, 1110602), IL10 (DKW, 1110003) by ELISA. Macrophages were detached gently on ice with EDTA (Invitrogen, 15575-038) and analyzed by FACS (BD LSR Fortessa, 853492). Cells were stained for live/dead dye, surface and intracellular markers with fixation/permeabilization solution (BD, 554714) and ALIVE/DEAD™ Fixable Near-IR Dead Cell Stain Kit (BD, L34976), mouse anti human CD86 APC (BD, 555660), mouse anti-human CD163 PE (BD, 556018), mouse anti-human CD68 FITC (BD, 562117) or isotype controls anti-mouse IgG1 κ PE (BD, 559320) and anti-mouse IgG1 κ APC (BD, Anti mouse IgG1 κ APC (BD, 55571). Mature M1 macrophages were defined as CD86+CD68+CD163− and increase in TNFα, IL6, and decrease in IL-10.

COC(=O)CCC(=O)CC(=O)SCCNC(=O)CCNC(=O)[C@@H]1OP(=O)(O)OCC1(C)C [Compound 6]
% decrease in IL-8 ([1]; 3C system, 1 uM): ≥10%
% increase in Proliferation (HUVEC) ([1]; 3C system, 10 uM): ≥20%
% increase in Proliferation (HUVEC) ([1]; concentration tested 10 uM): ≥20%
% decrease in IL-8 ([1]; procedure of Example 825, concentration tested 1 uM): ≥10%
% decrease in MCP-1 ([2]; 4H system, 1 uM): ≥10%
% decrease in VEGFRII ([2]; 4H system, 1 uM): ≥10%
% decrease in MCP-1 ([2]; concentration tested 1 uM): ≥10%
% decrease in VEGFRII ([2]; concentration tested 1 uM): ≥10%
% decrease in M-CSF ([3]; Example 988, concentration tested 1 uM): ≥10%
% decrease in IL-8 ([3]; LPS system, 1 uM): ≥10%
% decrease in M-CSF ([3]; LPS system, 1 uM): ≥10%
% decrease in Tissue Factor ([3]; LPS system, 1 uM): ≥10%
% decrease in sTNFα ([3]; LPS system, 1 uM): ≥20%
% decrease in Tissue Factor ([3]; concentration tested 1 uM): ≥10%
% decrease in sTNFα ([3]; concentration tested 1 uM): ≥20%
% decrease in IL-8 ([3]; procedure of Example 827, concentration tested 1 uM): ≥10%
% increase in MCP-1 [4]: ≥10%
% decrease in sTNFα [5]: ≥10%
% increase in VCAM-1 [6]: ≥10%
% decrease in HLA-DR ([7]; 1 uM): ≥10%
% decrease in M-CSF ([7]; 1 uM): ≥10%
% decrease in VCAM-1 ([7]; 1 uM): ≥10%
% decrease in Thrombomodulin ([7]; 10 uM): ≥20%
% decrease in TIMP-1 [8]: ≥10%
% increase in 72 Hour Proliferation [8]: ≥10%
% decrease in MCP-1 ([9]; 10 uM (Example 927)): ≥10%
% decrease in MCP-1 ([9]; 10 uM (Example 928)): ≥10%
% decrease in α-SMA ([10]; procedure of Example 836, 1 uM): ≥10%
% increase in MMP-1 ([10]; procedure of Example 836, 10 uM): ≥10%

CCOC(=O)CCC(=O)SCCNC(=O)CCNC(=O)[C@@H]1OP(=O)(N[C@@H](C)C(=O)OCC)OCC1(C)C (some centres unmarked) [Compound 206]
% increase in sIL-6 [5]: ≥20%

CC(C)=CC(=O)SCCNC(=O)CCNC(=O)[C@@H]1OC(C)(C)OCC1(C)C [Compound 850, S-2-(3-{[(R)-2,2,5,5-Tetramethyl-1,3-dioxan-4-yl]carbonylamino}propionylamino)ethyl 3-methyl-2-butenethioate]
% decrease in Macrophage IL-6 Secretion ([11]; 10 uM): ≥30%
% decrease in Macrophage TNFα Secretion ([11]; 50 uM): ≥30%

CC1(C)OC(=O)C(CC(=O)SCCNC(=O)CCNC(=O)[C@@H]2OC(C)(C)OCC2(C)C)O1 (some centres unmarked) [Compound 851]
% Increase in IL-10 Secretion ([11]; 10 uM): ≥30%
% decrease in Macrophage IL-6 Secretion ([11]; 10 uM): ≥30%
% decrease in Macrophage TNFα Secretion ([11]; 10 uM): ≥30%
